Laboratory results from patent publication US11932633B2, “KRas G12C inhibitors” (Mirati Therapeutics, Inc., priority 2018, dated 2024).

Tests used:
[1] = target: T1, KRas G12C (Homo sapiens, UniProt P01116, C118S/C51S/C80L/G12C); test: KRas G12C Modification Assay (LCMS detection of covalent adduct); type: binding; settings: 5 μM concentration for 3 hours
T1 construct: GDP-loaded K-Ras (1-169) G12C, C51S, C80L, C118S
Experimental: This Example illustrates that exemplary compounds of the present invention covalently bind to KRas G12C using a LCMS assay to detect a covalent adduct of the exemplary compound and KRAS G12C.
The protein concentration of GDP-loaded K-Ras (1-169) G12C, C51S, C80L, C118S and GTP-loaded K-Ras (1-169) G12C, C51S, C80L, C118S, Q61H was adjusted to 2 μM in K-Ras Assay Buffer (25 mM HEPES, 150 mM NaCl, 5 mM MgCl2, and 10 mM Octyl β-glucopyranoside at pH 7.5). A 10 μL aliquot of each protein solution was transferred to a 384 well microtiter plate. Initial compound stocks were generated at fifty times their desired final assay concentration in DMSO.
Exemplary compounds of formula (I) were diluted 25-fold into K-Ras Assay Buffer to a final of two times their final concentration. A 10 μL aliquot of each diluted compound solution was added to each of the protein solutions in the microtiter plate to initiate reaction. Typical final compound concentrations were 3.0, 5.0 and 25.0 μM. At each time point, the reactions were quenched with 20 μL of a 25 mM acetic acid solution. Usual assay endpoints were 15, 180 and 1440 minutes. Once all reactions were quenched, the plates were heat sealed and the samples were injected into a LC/MS system for data acquisition.
Data collection took place on an Agilent 6520 Q-TOF Accurate Mass Spectrometer. Samples were injected in their liquid phase onto a C-3 reverse phase column to remove assay buffer and prepare the samples for mass spectrometer. The proteins were eluted from the column using an acetonitrile gradient and fed directly into the mass analyzer. Initial raw data analysis took place in Agilent MassHunter software immediately post data acquisition.
Raw data analysis of the intact protein was exclusively a deconvolution of the multiple charge states of each protein in solution using a maximum entropy deconvolution provided in Mass Hunter. To minimize complexity, only the data over limited mass ranges were considered for analysis, with a minimum of one Dalton mass step intervals. The heights of all masses identified during raw data analysis were exported to be further analyzed in Spotfire® data analysis software.
Final data analysis was a multistep process in the Spotfire® data analysis software package. Briefly, each protein mass was calculated as a percent of the total signal of that sample, that percentage was normalized to the percentage of signal of the protein in the absence of reactive compounds. Those normalized signals were reported as normalized percent of control (POC). […] Key: N.D. is not determined.

[2] = target: T2, KRas G12C (Homo sapiens, UniProt P01116, G12C); test: Cellular inhibition of KRas G12C measured by Phospho-ERK in NCI-11358 cells; type: cell-based; settings: NCI-11358 cells (ATCC CRL-5807), 3 hours; read-out: Inhibition (IC50, pERK (Thr202/Tyr204) signal normalized with GAPDH)
T2 construct: NCI-11358 cells (ATCC CRL-5807) express KRas G12C; host or cells: NCI-H358
Experimental: The cellular inhibition of KRAs G12C by exemplary compounds of the present invention was determined by measuring the amount of a downstream marker of KRas activity, phosphorylated ERK (“Phospho-ERK”).
NCI-11358 cells (ATCC CRL-5807) express KRas G12C and were grown in RPMI medium supplemented with 10% fetal bovine serum, penicillin/streptomycin and 10 mM HEPES. Cells were plated in poly-D-Lysine coated 96-well plates at a concentration of 50,000 cells/well and allowed to attach for 8-12 hours. Diluted compounds were then added at a final concentration of 0.5% DMSO. After 3 hours, the medium was removed, 150 μL of 4% formaldehyde was added and the plates were incubated for 20 minutes. The plates were washed with PBS, and permeabilized using 150 μL of ice cold 100% methanol for 10 minutes. Non-specific antibody binding to the plates was blocked using 100 μL Licor Blocking Buffer (Li-Cor Biotechnology, Lincoln NE) for 1 hour at room temperature. Positive control samples and samples lacking cells were parallel processed with test samples as standards.
The amount Phospho-ERK was determined using an antibody specific for the phosphorylated form of ERK and compared to the amount of GAPDH. Primary antibodies used for detection were added as follows: Phospho-ERK (Cell Signaling cs9101) diluted 1:500 and GAPDH (Millipore MAB374) diluted 1:5000 in Licor block+0.05% Tween 20. The plates were incubated for 2 hours at room temperature. The plates were washed with PBS+0.05% Tween 20.
Secondary antibodies used to visualize primary antibodies were added as follows: Anti-rabbit-680 diluted 1:1000 and Anti-mouse-800 diluted 1:1000 in Licor Block+0.05% Tween 20 and incubated for 1 hour at room temperature. The plates were washed with PBS+0.05% Tween 20. A 100 μL aliquot of PBS was added to each well and the plates were read on a LICOR AERIUS plate reader.
The pERK (Thr202/Tyr204) signal was normalized with the GAPDH signal and percent of DMSO control values were calculated. IC50 values were generated using a 4 parameter fit of the dose response curve. Key: “A”: ≤1 μM, “B”>1 μM and N.D.=not determined.

POC (normalized percent of control, covalent modification of KRas G12C) [1] | IC50 [2] | POC (normalized percent of control, covalent modification of KRas G12C) ([1]; 5 µM) | SMILES
85% of control | > 1000 nM |  | C=CC(=O)N1CC(C)(CN2C(=O)COc3cc(-c4cc(O)cc5ccccc45)c(Cl)cc32)C1 [Example 17, 4-((1-acryloyl-3-methylazetidin-3-yl)methyl)-6-chloro-7-(3-hydroxynaphthalen-1-yl)-2H-benzo[b][1,4]oxazin-3(4H)-one]
91% of control | ≤ 1000 nM |  | C=CC(=O)N1CC(CN2C(=O)C(C3CCN(C)CC3)Oc3cc(-c4cc(O)cc5ccccc45)c(Cl)cc32)C1 (stereo not drawn) [Example 3, 4-((1-acryloylazetidin-3-yl)methyl)-6-chloro-7-(3-hydroxynaphthalen-1-yl)-2-(1-methylpiperidin-4-yl)-2H-benzo[b][1,4]oxazin-3(4H)-one]
91% of control | ≤ 1000 nM |  | C=CC(=O)N1CC(CN2C(=O)[C@@H](CCN(C)C)Oc3cc(-c4cc(O)cc5ccccc45)c(Cl)cc32)C1 [Example 18, (R)-4-((1-acryloylazetidin-3-yl)methyl)-6-chloro-2-(2-(dimethylamino)ethyl)-7-(3-hydroxynaphthalen-1-yl)-2H-benzo[b][1,4]oxazin-3(4H)-one]
102% of control | > 1000 nM |  | C=CC(=O)N1CC(CN2C(=O)CSc3cc(-c4cc(O)cc5ccccc45)ccc32)C1 [Example 14, 4-((1-acryloylazetidin-3-yl)methyl)-7-(3-hydroxynaphthalen-1-yl)-2H-benzo[b][1,4]thiazin-3(4H)-one]
25% of control | > 1000 nM |  | C=CC(=O)N1CC(CN2C(=O)COc3cc(-c4onc5ccccc45)c(Cl)cc32)C1 [Example 29, 4-((1-acryloylazetidin-3-yl)methyl)-7-(benzo[c]isoxazol-3-yl)-6-chloro-2H-benzo[b][1,4]oxazin-3(4H)-one]
100% of control | > 1000 nM |  | C=CC(=O)N1CC(CN2C(=O)COc3c2cc(Cl)c(-c2cc(O)cc4ccccc24)c3F)C1 [Example 16, 4-((1-acryloylazetidin-3-yl)methyl)-6-chloro-8-fluoro-7-(3-hydroxynaphthalen-1-yl)-2H-benzo[b][1,4]oxazin-3(4H)-one]
93% of control | ≤ 1000 nM |  | C=CC(=O)N1CC(CN2C(=O)C(CN3CC[C@H](OC)C3)Oc3cc(-c4cc(O)cc5ccccc45)c(Cl)cc32)C1 (stereo partly drawn) [Example 30, 4-((1-acryloylazetidin-3-yl)methyl)-6-chloro-7-(3-hydroxynaphthalen-1-yl)-2-(((S)-3-methoxypyrrolidin-1-yl)methyl)-2H-benzo[b][1,4]oxazin-3(4H)-one]
96% of control | > 1000 nM |  | C=CC(=O)N1CC(CN2C(=O)COc3cc(-c4cc(O)ccc4OC(F)(F)F)c(Cl)cc32)C1 [Example 7, 4-((1-acryloylazetidin-3-yl)methyl)-6-chloro-7-(5-hydroxy-2-(trifluoromethoxy)phenyl)-2H-benzo[b][1,4]oxazin-3(4H)-one]
32% of control | > 1000 nM |  | C=CC(=O)N1CC(CN2C(=O)[C@H](CCN(C)C)Oc3cc(-c4cccc5ccccc45)c(Cl)cc32)C1 [Example 33, (S)-4-((1-acryloylazetidin-3-yl)methyl)-6-chloro-2-(2-(dimethylamino)ethyl)-7-(naphthalen-1-yl)-2H-benzo[b][1,4]oxazin-3(4H)-one]
94% of control | > 1000 nM |  | C=CC(=O)N1CC(CN2C(=O)C(CC(C)C)Oc3cc(-c4cc(O)cc5ccccc45)c(Cl)cc32)C1 (stereo not drawn) [Example 2, 4-((1-acryloylazetidin-3-yl)methyl)-6-chloro-7-(3-hydroxynaphthalen-1-yl)-2-isobutyl-2H-benzo[b][1,4]oxazin-3(4H)-one]
81% of control | > 1000 nM |  | C=CC(=O)N1CC(CN2C(=O)COc3cc(-c4cc(O)cc5ccccc45)c(C#N)cc32)C1 [Example 32, 4-((1-acryloylazetidin-3-yl)methyl)-7-(3-hydroxynaphthalen-1-yl)-3-oxo-3,4-dihydro-2H-benzo[b][1,4]oxazine-6-carbonitrile]
95% of control | ≤ 1000 nM |  | C=CC(=O)N1CC(CN2C(=O)C(CN3CCC(N(C)C)CC3)Oc3cc(-c4cc(O)cc5ccccc45)c(Cl)cc32)C1 (stereo not drawn) [Example 5, 4-((1-acryloylazetidin-3-yl)methyl)-6-chloro-2-((4-(dimethylamino)piperidin-1-yl)methyl)-7-(3-hydroxynaphthalen-1-yl)-2H-benzo[b][1,4]oxazin-3(4H)-one]
 | > 1000 nM | 96% of control | C=CC(=O)N1CC(CN2C(=O)COc3cc(-c4c(C)ccc5[nH]ncc45)c(Cl)cc32)C1 (single isomer, unassigned) [Example 11]
94% of control | ≤ 1000 nM |  | C=CC(=O)N1CC(CN2C(=O)C(CN(C)C)Oc3cc(-c4cc(O)cc5ccccc45)c(Cl)cc32)C1 (stereo not drawn) [Example 27, 4-((1-acryloylazetidin-3-yl)methyl)-6-chloro-2-((dimethylamino)methyl)-7-(3-hydroxynaphthalen-1-yl)-2H-benzo[b][1,4]oxazin-3(4H)-one]
99% of control | > 1000 nM |  | C=CC(=O)N1CC(CN2C(=O)COc3cc(-c4cc(O)cc5ccccc45)c(C)cc32)C1 [Example 19, 4-((1-acryloylazetidin-3-yl)methyl)-7-(3-hydroxynaphthalen-1-yl)-6-methyl-2H-benzo[b][1,4]oxazin-3(4H)-one]
 | > 1000 nM | 27% of control | C=CC(=O)N1CC(CN2C(=O)[C@H](CCN(C)C)Oc3cc(-c4c(C)ccc5[nH]ncc45)c(Cl)cc32)C1 (single isomer, unassigned) [Example 36]
104% of control | ≤ 1000 nM |  | C=CC(=O)N1CC(CN2C(=O)COc3cc(-c4cc(O)cc5ccccc45)c(Cl)cc32)C1 [Example 1, 4-((1-acryloylazetidin-3-yl)methyl)-6-chloro-7-(3-hydroxynaphthalen-1-yl)-2H-benzo[b][1,4]oxazin-3(4H)-one]

SMILES | POC (normalized percent of control, covalent modification of KRas G12C) [1] | IC50 [2] | POC (normalized percent of control, covalent modification of KRas G12C) ([1]; 5 µM)
C=CC(=O)N1CC(CN2C(=O)COc3cc(-c4ccccc4C(F)(F)F)c(Cl)cc32)C1 [Example 37, 4-((1-acryloylazetidin-3-yl)methyl)-6-chloro-7-(2-(trifluoromethyl)phenyl)-2H-benzo[b][1,4]oxazin-3(4H)-one] | 66% of control | > 1000 nM | 
